The structures appear in SMILES notation.

In the data set the test system is cancer cells. Kind of data set: MTT cytotoxic assay of esterification products (Cytotoxicity activity). The class given is cell-based, human. In short, it runs like this:
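Cytotoxicity was read by MTT (Carmichael method, modified), with cells seeded 24 h ahead of treatment. Sixteen human cancer lines spanning bone, lung, bladder, ovary, colon, pancreas, prostate, skin, mouth, kidney, breast, liver, brain, leukemia and cervix were used. Test samples were acyl chloride esterification products of triterpenes, as mixtures or HPLC-purified compounds.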
A general note: Tetrazolium dyes change colour on reduction, which living cells bring about.

[1] abbreviates: MTT cytotoxic assay, isolated esterification products of E4A.
The mark [2] stands for this setting: E4A esterified with Acetyl chloride (Acy = Acetyl), compounds isolated with HPLC.

Take `CCC(CC)C(=O)OCC12C(O)CC3(C)C(=CCC4C5(C)CCC(O)C(C)(CO)C5CCC43C)C1CC(C)(C)C(O)C2O` (stereo not drawn) [Compound E2]: under setting [1], the Cytotoxicity activity entry is on record as “moderate”.

Take `CCC(CC)C(=O)OCC1(C)C(O)CCC2(C)C1CCC1(C)C2CC=C2C3CC(C)(C)C(O)C(O)C3(COC(=O)C(CC)CC)C(O)CC21C` (stereo not drawn) [Compound E3]: the Cytotoxicity activity entry under setting [1] is “strong”.

As for `CCC(CC)C(=O)OCC1(C)C(O)CCC2(C)C1CCC1(C)C2CC=C2C3CC(C)(C)C(OC(=O)C(CC)CC)C(O)C3(COC(=O)C(CC)CC)C(O)CC21C` (stereo not drawn) [Compound E4], the Cytotoxicity activity result under setting [1] is recorded as “moderate”.

Consider `CCC(CC)C(=O)OCC1(C)C(O)CCC2(C)C1CCC1(C)C2CC=C2C3CC(C)(C)C(O)C(OC(=O)C(CC)CC)C3(COC(=O)C(CC)CC)C(O)CC21C` (stereo not drawn) [Compound E5], for which, under setting [1], the Cytotoxicity activity entry was “moderate”.

Regarding `CCC(CC)C(=O)OCC1(C)C(OC(=O)C(CC)CC)CCC2(C)C1CCC1(C)C2CC=C2C3CC(C)(C)C(O)C(O)C3(COC(=O)C(CC)CC)C(O)CC21C` (stereo not drawn) [Compound E6], the Cytotoxicity activity result under setting [1] is on record as “moderate”.

On to `CCC(CC)C(=O)OCC1(C)C(O)CCC2(C)C1CCC1(C)C2CC=C2C3CC(C)(C)C(O)C(O)C3(COC(=O)C(CC)CC)C(OC(=O)C(CC)CC)CC21C` (stereo not drawn) [Compound E7], for which, under setting [1], the Cytotoxicity activity entry is “moderate”.

On to `CCC(CC)C(=O)OCC1(C)C(O)CCC2(C)C1CCC1(C)C2CC=C2C3CC(C)(C)C(OC(=O)C(CC)CC)C(OC(=O)C(CC)CC)C3(COC(=O)C(CC)CC)C(O)CC21C` (stereo not drawn) [Compound E8], for which the Cytotoxicity activity entry under setting [1] is on record as “weak”.

`CCC(CC)C(=O)OCC1(C)C(OC(=O)C(CC)CC)CCC2(C)C1CCC1(C)C2CC=C2C3CC(C)(C)C(O)C(OC(=O)C(CC)CC)C3(COC(=O)C(CC)CC)C(O)CC21C` (stereo not drawn) [Compound E9]: the Cytotoxicity activity entry under setting [1] is listed as “weak”.

Regarding `CCC(CC)C(=O)OCC1(C)C(OC(=O)C(CC)CC)CCC2(C)C1CCC1(C)C2CC=C2C3CC(C)(C)C(O)C(O)C3(COC(=O)C(CC)CC)C(OC(=O)C(CC)CC)CC21C` (stereo not drawn) [Compound E10], the Cytotoxicity activity result under setting [1] is given as “weak”.

Consider `CCC(CC)C(=O)OCC1(C)C(OC(=O)C(CC)CC)CCC2(C)C1CCC1(C)C2CC=C2C3CC(C)(C)C(OC(=O)C(CC)CC)C(O)C3(COC(=O)C(CC)CC)C(O)CC21C` (stereo not drawn) [Compound E11], for which, under setting [1], the Cytotoxicity activity entry is recorded as “weak”.

In the case of `CCC(CC)C(=O)OCC1(C)C(O)CCC2(C)C1CCC1(C)C2CC=C2C3CC(C)(C)C(O)C(OC(=O)C(CC)CC)C3(COC(=O)C(CC)CC)C(OC(=O)C(CC)CC)CC21C` (stereo not drawn) [Compound E12], under setting [1], the Cytotoxicity activity entry was “weak”.

Regarding `CCC(CC)C(=O)OCC1(C)C(O)CCC2(C)C1CCC1(C)C2CC=C2C3CC(C)(C)C(OC(=O)C(CC)CC)C(O)C3(COC(=O)C(CC)CC)C(OC(=O)C(CC)CC)CC21C` (stereo not drawn) [Compound E13], the Cytotoxicity activity result under setting [1] is listed as “weak”.

For the molecule `CCC(CC)C(=O)OCC1(C)C(OC(=O)C(CC)CC)CCC2(C)C1CCC1(C)C2CC=C2C3CC(C)(C)C(O)C(OC(=O)C(CC)CC)C3(COC(=O)C(CC)CC)C(O)CC21C` (stereo not drawn) [Compound E14], under setting [1], the Cytotoxicity activity result was “weak”.

On to `CCC(CC)C(=O)OCC1(C)C(OC(=O)C(CC)CC)CCC2(C)C1CCC1(C)C2CC=C2C3CC(C)(C)C(OC(=O)C(CC)CC)C(OC(=O)C(CC)CC)C3(COC(=O)C(CC)CC)C(O)CC21C` (stereo not drawn) [Compound E15], for which the Cytotoxicity activity entry under setting [1] is reported as “weak”.

In the case of `CCC(CC)C(=O)OCC1(C)C(O)CCC2(C)C1CCC1(C)C2CC=C2C3CC(C)(C)C(OC(=O)C(CC)CC)C(OC(=O)C(CC)CC)C3(COC(=O)C(CC)CC)C(OC(=O)C(CC)CC)CC21C` (stereo not drawn) [Compound E16], the Cytotoxicity activity result under setting [1] was “weak”.

On to `CCC(CC)C(=O)OCC1(C)C(OC(=O)C(CC)CC)CCC2(C)C1CCC1(C)C2CC=C2C3CC(C)(C)C(OC(=O)C(CC)CC)C(O)C3(COC(=O)C(CC)CC)C(OC(=O)C(CC)CC)CC21C` (stereo not drawn) [Compound E17], for which the Cytotoxicity activity entry under setting [1] is listed as “weak”.

`CCC(CC)C(=O)OCC1(C)C(OC(=O)C(CC)CC)CCC2(C)C1CCC1(C)C2CC=C2C3CC(C)(C)C(O)C(OC(=O)C(CC)CC)C3(COC(=O)C(CC)CC)C(OC(=O)C(CC)CC)CC21C` (stereo not drawn) [Compound E18]: the Cytotoxicity activity entry under setting [1] is recorded as “weak”.

Take `CCC(CC)C(=O)OCC1(C)C(OC(=O)C(CC)CC)CCC2(C)C1CCC1(C)C2CC=C2C3CC(C)(C)C(OC(=O)C(CC)CC)C(OC(=O)C(CC)CC)C3(COC(=O)C(CC)CC)C(OC(=O)C(CC)CC)CC21C` (stereo not drawn) [Compound E19]: the Cytotoxicity activity result under setting [1] was “none”.

Consider `CCC(CC)C(=O)OCC12C(O)CC3(C)C(=CCC4C5(C)CCC(O)C(C)(CO)C5CCC43C)C1CC(C)(C)C(OC(=O)C(CC)CC)C2OC(=O)C(CC)CC` (stereo not drawn) [Compound E20], for which the Cytotoxicity activity entry under setting [1] is recorded as “moderate”.

For `CCC(CC)C(=O)OCC1(C)C(O)CCC2(C)C1CCC1(C)C2CC=C2C3CC(C)(C)C(OC(=O)C(CC)CC)C(OC(=O)C(CC)CC)C3(CO)C(O)CC21C` (stereo not drawn) [Compound E21], the Cytotoxicity activity result under setting [1] is “moderate”.

Consider `CCC(CC)C(=O)OC1C(OC(=O)C(CC)CC)C2(CO)C(OC(=O)C(CC)CC)CC3(C)C(=CCC4C5(C)CCC(O)C(C)(CO)C5CCC43C)C2CC1(C)C` (stereo not drawn) [Compound E22], for which, under setting [1], the Cytotoxicity activity result is “moderate”.

Take `CCC(CC)C(=O)OC1C(OC(=O)C(CC)CC)C2(CO)C(O)CC3(C)C(=CCC4C5(C)CCC(OC(=O)C(CC)CC)C(C)(CO)C5CCC43C)C2CC1(C)C` (stereo not drawn) [Compound E23]: the Cytotoxicity activity result under setting [1] is listed as “moderate”.

On to `CCC(CC)C(=O)OC1C(OC(=O)C(CC)CC)C2(CO)C(O)CC3(C)C(=CCC4C5(C)CCC(O)C(C)(CO)C5CCC43C)C2CC1(C)C` (stereo not drawn) [Compound E24], for which, under setting [1], the Cytotoxicity activity result is recorded as “moderate”.

As to `CCC(CC)C(=O)OCC12C(O)CC3(C)C(=CCC4C5(C)CCC(O)C(C)(CO)C5CCC43C)C1CC(C)(C)C(OC(=O)C(CC)CC)C2O` (stereo not drawn) [Compound E25], under setting [1], the Cytotoxicity activity entry is recorded as “moderate”.

`CCC(CC)C(=O)OCC12C(O)CC3(C)C(=CCC4C5(C)CCC(O)C(C)(CO)C5CCC43C)C1CC(C)(C)C(O)C2OC(=O)C(CC)CC` (stereo not drawn) [Compound E26]: the Cytotoxicity activity entry under setting [1] was “moderate”.

In the case of `CCC(CC)C(=O)OCC12C(O)CC3(C)C(=CCC4C5(C)CCC(OC(=O)C(CC)CC)C(C)(CO)C5CCC43C)C1CC(C)(C)C(O)C2O` (stereo not drawn) [Compound E27], under setting [1], the Cytotoxicity activity result was “moderate”.

As to `CCC(CC)C(=O)OCC12C(OC(=O)C(CC)CC)CC3(C)C(=CCC4C5(C)CCC(O)C(C)(CO)C5CCC43C)C1CC(C)(C)C(O)C2O` (stereo not drawn) [Compound E28], the Cytotoxicity activity result under setting [1] was “moderate”.

`CCC(CC)C(=O)OCC1(C)C(O)CCC2(C)C1CCC1(C)C2CC=C2C3CC(C)(C)C(OC(=O)C(CC)CC)C(O)C3(CO)C(O)CC21C` (stereo not drawn) [Compound E29]: the Cytotoxicity activity result under setting [1] is given as “moderate”.

Turning to `CCC(CC)C(=O)OCC1(C)C(O)CCC2(C)C1CCC1(C)C2CC=C2C3CC(C)(C)C(O)C(OC(=O)C(CC)CC)C3(CO)C(O)CC21C` (stereo not drawn) [Compound E30], the Cytotoxicity activity entry under setting [1] was “moderate”.

Turning to `CCC(CC)C(=O)OCC1(C)C(OC(=O)C(CC)CC)CCC2(C)C1CCC1(C)C2CC=C2C3CC(C)(C)C(O)C(O)C3(CO)C(O)CC21C` (stereo not drawn) [Compound E31], the Cytotoxicity activity entry under setting [1] is given as “moderate”.

Consider `CCC(CC)C(=O)OCC1(C)C(O)CCC2(C)C1CCC1(C)C2CC=C2C3CC(C)(C)C(O)C(O)C3(CO)C(OC(=O)C(CC)CC)CC21C` (stereo not drawn) [Compound E32], for which the Cytotoxicity activity entry under setting [1] is reported as “moderate”.

For the molecule `C/C=C(/C)C(=O)OC[C@]1(C)[C@@H]2CC[C@]3(C)[C@H](CC=C4[C@@H]5CC(C)(C)[C@@H](O)[C@H](O)[C@]5(CO)[C@H](O)C[C@]43C)[C@@]2(C)CC[C@@H]1OC(=O)/C(C)=C\C` [Compound G31], under setting [1], the Cytotoxicity activity result was “moderate”.

Consider `CC(=O)OCC1(C)C(O)CCC2(C)C1CCC1(C)C2CC=C2C3CC(C)(C)C(O)C(O)C3(CO)C(O)CC21C` (stereo not drawn) [Compound H1], for which the Cytotoxicity activity entry under setting [2] is “moderate”.

In the case of `CC(=O)OCC12C(O)CC3(C)C(=CCC4C5(C)CCC(O)C(C)(CO)C5CCC43C)C1CC(C)(C)C(O)C2O` (stereo not drawn) [Compound H2], the Cytotoxicity activity result under setting [2] was “moderate”.

As for `CC(=O)OCC1(C)C(O)CCC2(C)C1CCC1(C)C2CC=C2C3CC(C)(C)C(O)C(O)C3(COC(C)=O)C(O)CC21C` (stereo not drawn) [Compound H3], the Cytotoxicity activity result under setting [2] was “strong”.

On to `CC(=O)OCC1(C)C(O)CCC2(C)C1CCC1(C)C2CC=C2C3CC(C)(C)C(OC(C)=O)C(O)C3(COC(C)=O)C(O)CC21C` (stereo not drawn) [Compound H4], for which the Cytotoxicity activity result under setting [2] is recorded as “moderate”.

Turning to `CC(=O)OCC1(C)C(O)CCC2(C)C1CCC1(C)C2CC=C2C3CC(C)(C)C(O)C(OC(C)=O)C3(COC(C)=O)C(O)CC21C` (stereo not drawn) [Compound H5], the Cytotoxicity activity result under setting [2] is recorded as “moderate”.

`CC(=O)OCC1(C)C(OC(C)=O)CCC2(C)C1CCC1(C)C2CC=C2C3CC(C)(C)C(O)C(O)C3(COC(C)=O)C(O)CC21C` (stereo not drawn) [Compound H6]: under setting [2], the Cytotoxicity activity result is given as “moderate”.

Regarding `CC(=O)OCC1(C)C(O)CCC2(C)C1CCC1(C)C2CC=C2C3CC(C)(C)C(O)C(O)C3(COC(C)=O)C(OC(C)=O)CC21C` (stereo not drawn) [Compound H7], the Cytotoxicity activity entry under setting [2] is given as “moderate”.

In the case of `CC(=O)OCC1(C)C(O)CCC2(C)C1CCC1(C)C2CC=C2C3CC(C)(C)C(OC(C)=O)C(OC(C)=O)C3(COC(C)=O)C(O)CC21C` (stereo not drawn) [Compound H8], under setting [2], the Cytotoxicity activity entry is on record as “weak”.

With `CC(=O)OCC1(C)C(OC(C)=O)CCC2(C)C1CCC1(C)C2CC=C2C3CC(C)(C)C(O)C(OC(C)=O)C3(COC(C)=O)C(O)CC21C` (stereo not drawn) [Compound H9], the Cytotoxicity activity entry under setting [2] was “weak”.

For the molecule `CC(=O)OCC1(C)C(OC(C)=O)CCC2(C)C1CCC1(C)C2CC=C2C3CC(C)(C)C(O)C(O)C3(COC(C)=O)C(OC(C)=O)CC21C` (stereo not drawn) [Compound H10], the Cytotoxicity activity entry under setting [2] was “weak”.

On to `CC(=O)OCC1(C)C(OC(C)=O)CCC2(C)C1CCC1(C)C2CC=C2C3CC(C)(C)C(OC(C)=O)C(O)C3(COC(C)=O)C(O)CC21C` (stereo not drawn) [Compound H11], for which, under setting [2], the Cytotoxicity activity result is “weak”.

On to `CC(=O)OCC1(C)C(O)CCC2(C)C1CCC1(C)C2CC=C2C3CC(C)(C)C(O)C(OC(C)=O)C3(COC(C)=O)C(OC(C)=O)CC21C` (stereo not drawn) [Compound H12], for which the Cytotoxicity activity result under setting [2] was “weak”.

On to `CC(=O)OCC1(C)C(O)CCC2(C)C1CCC1(C)C2CC=C2C3CC(C)(C)C(OC(C)=O)C(O)C3(COC(C)=O)C(OC(C)=O)CC21C` (stereo not drawn) [Compound H13], for which, under setting [2], the Cytotoxicity activity entry was “weak”.

The values are drawn from patent US20230340012A1, “NATURAL AND SYNTHETIC COMPOUNDS FOR TREATING CANCER AND OTHER DISEASES” (PACIFIC ARROW LIMITED, priority 2009, published 2023).
